As usually defined, the pKa is the pH at which an ionisable group is half protonated. Low values mean a group that gives up its proton readily, high ones a group that holds its proton tightly.

From patent publication US10124065B2, “Lipids and lipid compositions for the delivery of active agents” (Novartis AG, priority 2013, dated 2018) come the findings set out here.

Common to all, as to assay type: physicochemical
Data set [1] in a line: pKa measurement of cationic lipid (TNS fluorescence). To be noted: pKa of the cationic lipid of formula (I); Table 4; listed as Ex. 38. In short, it runs like this:
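Lipid (2 mM ethanol stock) mixed with TNS probe (0.3 mM stock) and diluted into twelve sodium phosphate/citric acid buffers of varying pH. TNS fluorescence read after background subtraction and normalized to the lowest-pH value. pKa taken as the pH at half-maximal normalized fluorescence on the smoothed curve, precise to about 0.1 units.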

The nature of data set [2]: Particle size of lipid nanoparticle (dynamic light scattering, Malvern Zetasizer). In short, it runs like this: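 Sizes are average diameters of fully formed nanoparticles measured by dynamic light scattering. Samples were diluted in PBS to a count rate of about 200–400 kcts. Values are intensity-weighted Z-average sizes.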
Data set [3] can be described thus: Measurement of mRNA encapsulation (Quant-iT Ribogreen). To be noted: leptin mRNA in lipid nanoparticles (cationic lipid, DSPC, cholesterol, stealth lipid). Here is the method:
All equipment and disposable supplies were certified free of RNase activity by the manufacturer or rendered RNase free by use of the RNaseZap reagent (LifeTechnologies). mRNA was encapsulated at a cationic lipid amine to mRNA phosphate (N:P) molar ratio of 4:1. Lipids (cationic lipid, DSPC, cholesterol and lipidated PEG or stealth lipid) were dissolved in ethanol. The molar ratios were […], respectively. The mixture was sonicated briefly, then gently agitated for 5 minutes and then maintained at 37° C. until use. mRNA was exchanged into citrate buffer pH 5.8-6.0 by use of Amicon Ultra-15 centrifugal concentrators, and the final concentration was adjusted to 0.5 mg/ml and held at 37° C. until use. An equal volume of lipids in ethanol, mRNA in citrate buffer, and citrate buffer alone were drawn into disposable syringes. Tubing leading from syringes containing lipids and mRNA are attached to the T junction, and tubing leading from the syringe containing citrate buffer alone was paired with the tubing exiting the T-junction over a collection vessel containing a stir bar on an active stir plate. Syringes were placed in a syringe pump set to expel contents at a flow rate of 1 ml per minute.
The pump was activated, and the collected mRNA in lipid nanoparticles was transferred to SnakeSkin dialysis tubing (10,000 MWCO, Thermo Scientific). Material was dialyzed against RNAse- and pyrogen-free 1× phosphate buffered saline overnight at 4° C.
Percent encapsulation of mRNA in lipid nanoparticles was determined using the Quant-iT Ribogreen RNA Assay kit (Life Technologies). The LNP-mRNA suspension was assayed in buffer (mRNA outside the particle), and buffer plus Triton X-100 detergent (total mRNA). The difference calculated was the mRNA inside the particle. A 1000 ng/mL stock from the RNA provided in the kit was prepared and used to generate a standard curve (0 ng/ml, 15.63-1000 ng/ml) in TE and TE+0.75% Triton X-100. LNP-mRNA samples in TE buffer and TE buffer+0.75% Triton X-100 were prepared with appropriate dilution so that reading was in the range of standard curve (400-2,000 fold). In a 384-well plate (Costar non-treated #3573) 0.04 ml of standard (in duplicate) or sample (in triplicate) were added per well. Ribogreen reagent was diluted 240-fold in TE buffer and added 0.06 ml per well. The contents of wells were mixed and fluorescence was measured (excitation=480 nm, emission=520 nm). Background values (no RNA) were subtracted from standard and test sample values and the concentrations of RNA were determined in the samples using the standard curves. The percent encapsulation of the sample was determined by dividing the difference in concentrations between sample+triton and sample in buffer alone by the sample+triton concentration.

In turn, `CCCCC/C=C\C/C=C\CCCCCCCC(=O)OCCCCOc1cc(CN(C)C)cc(OCCCCOC(=O)CCCCCCC/C=C\C/C=C\CCCCC)c1` [Example 38, (9Z,9′Z,12Z,12′Z)-((5-((dimethylamino)methyl)-1,3-phenylene)bis(oxy))bis(butane-4,1-diyl)bis(octadeca-9,12-dienoate)] displayed a pKa in data set [1] of 5.9.

With `CCCCCCCCCCOC(=O)CCCCCCCOc1cc(CN(C)C)cc(OCCCCCCCC(=O)OCCCCCCCCCC)c1` [Example 57, didecyl 8,8′-((5-((dimethylamino)methyl)-1,3-phenylene)bis(oxy))dioctanoate], the “Size (nm)” value is listed as 108.4 nm in data set [2] (FVII siRNA LNP, Chol/DSPC/PEG-DMG, molar ratio 45/44/9/2, Z-average); 123.8 nm in data set [2] (FVII siRNA LNP, Chol/DSPC/S010, molar ratio 45/44/9/2, Z-average); 116.3 nm in data set [2] (PLK1-424 siRNA LNP, Chol/DSPC/S010 45/44/9/2); 127.8 nm in data set [2] (leptin mRNA lipid nanoparticles). Also, in data set [3], the “% encapsulation” value is listed as 96.0%.
